Experimental data reported in ChEMBL document CHEMBL1201862, “PubChem BioAssay data set” (2004).
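Test compounds were applied to cells in 96-well plates for 48 hours at 5 doses. At the GI50, growth is halved.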 Calls of active or inactive are those of the source. No stated cut-off is given here; in the data, active = GI50 up to about 1.1 µM and inactive = higher.

Key:
Assay in all cases: inhibition of tumour cell growth, NCI panel, 48 h
M14 = tested on: M14
UACC-257 = tested on: UACC-257
RXF 393 = tested on: RXF 393
Malme-3M = tested on: Malme-3M
EKVX = tested on: EKVX
HT-29 = tested on: HT-29
HL-60 = tested on: HL-60
786-0 = tested on: 786-0
SK-MEL-2 = tested on: SK-MEL-2
OVCAR-8 = tested on: OVCAR-8
CAKI-1 = tested on: CAKI-1
UACC-62 = tested on: UACC-62
LOX IMVI = tested on: LOX IMVI
NCI-H226 = tested on: NCI-H226
HCC 2998 = tested on: HCC 2998

Measured: GI50

Cn1c2c(c3ccccc31)CCN(CCCCN1CCc3c(n(C)c4ccccc34)C1=O)C2
inactive: M14 > 100 µM | UACC-257 > 100 µM | RXF 393 > 100 µM | Malme-3M > 100 µM | EKVX > 100 µM | HT-29 > 100 µM | HL-60 > 100 µM | 786-0 > 100 µM | SK-MEL-2 > 100 µM | OVCAR-8 > 100 µM | CAKI-1 > 100 µM | UACC-62 > 100 µM

COc1ccc2nccc(C3OC(=O)N4CCC(=O)CC34)c2c1 (stereo not given)
inactive: M14 > 100 µM | UACC-257 > 100 µM | RXF 393 > 100 µM | EKVX > 100 µM | HT-29 > 100 µM | LOX IMVI > 100 µM | HL-60 > 100 µM | 786-0 > 100 µM | SK-MEL-2 > 100 µM | OVCAR-8 > 100 µM | NCI-H226 > 100 µM | CAKI-1 > 100 µM | UACC-62 > 100 µM

CC(=O)OC1CCn2nnc(COC(=O)NC(C)C)c21 (stereo not given)
inactive: M14 > 100 µM | UACC-257 > 100 µM | RXF 393 > 100 µM | Malme-3M > 100 µM | EKVX > 100 µM | HT-29 > 100 µM | 786-0 > 100 µM | SK-MEL-2 > 100 µM | OVCAR-8 > 100 µM | NCI-H226 > 100 µM | HCC 2998 > 100 µM | CAKI-1 > 100 µM | UACC-62 > 100 µM

CC[P+](C)(C)CC
inactive: M14 > 100 µM | UACC-257 > 100 µM | RXF 393 > 100 µM | Malme-3M > 100 µM | EKVX > 100 µM | HT-29 > 100 µM | LOX IMVI > 100 µM | HL-60 > 100 µM | 786-0 > 100 µM | SK-MEL-2 82.8 µM | OVCAR-8 > 100 µM | NCI-H226 > 100 µM | HCC 2998 > 100 µM | UACC-62 > 100 µM

CC1=C(C(=O)Nc2ccccc2C)C(/C=C/c2ccccc2)C(C(=O)Nc2ccccc2C)=C(C)N1
inactive: M14 > 100 µM | UACC-257 > 100 µM | RXF 393 51.1 µM | Malme-3M > 100 µM | EKVX > 100 µM | HT-29 > 100 µM | LOX IMVI 74.8 µM | HL-60 72.3 µM | 786-0 > 100 µM | SK-MEL-2 > 100 µM | OVCAR-8 > 100 µM | NCI-H226 > 100 µM | HCC 2998 > 100 µM | CAKI-1 > 100 µM | UACC-62 > 100 µM

Nc1nc(CCC(=O)Nc2cccc(C(F)(F)F)c2)cc(-c2cccc3ccccc23)n1
inactive: M14 > 100 µM | UACC-257 > 100 µM | RXF 393 > 100 µM | Malme-3M > 100 µM | EKVX > 100 µM | HT-29 > 100 µM | LOX IMVI > 100 µM | HL-60 > 100 µM | 786-0 > 100 µM | SK-MEL-2 > 100 µM | OVCAR-8 > 100 µM | NCI-H226 > 100 µM | HCC 2998 > 100 µM | CAKI-1 > 100 µM | UACC-62 > 100 µM

CC(C)=C1CCC(CN2CCCC2)C1=O (stereo not given)
inactive: M14 19.2 µM | UACC-257 24.7 µM | RXF 393 21.4 µM | Malme-3M 21.4 µM | EKVX > 100 µM | HT-29 22.8 µM | LOX IMVI > 100 µM | HL-60 19.7 µM | 786-0 16.9 µM | SK-MEL-2 29.6 µM | OVCAR-8 > 100 µM | NCI-H226 > 100 µM | HCC 2998 20.3 µM | CAKI-1 13.7 µM | UACC-62 > 100 µM

C[C@H](C(=O)C12CC3CC(CC(C3)C1)C2)[C@H](O)c1ccccc1
inactive: M14 29.6 µM | UACC-257 29.9 µM | RXF 393 20.1 µM | EKVX 43.7 µM | HT-29 18.7 µM | LOX IMVI 17.5 µM | HL-60 23.1 µM | 786-0 22.8 µM | SK-MEL-2 19 µM | OVCAR-8 33.5 µM | NCI-H226 16.8 µM | CAKI-1 36 µM | UACC-62 28.4 µM

Cc1cn(C2CC(O)C(CO)O2)c(=O)n2nnnc12 (stereo not given)
inactive: M14 > 100 µM | UACC-257 > 100 µM | Malme-3M > 100 µM | EKVX > 100 µM | HT-29 > 100 µM | LOX IMVI > 100 µM | HL-60 > 100 µM | 786-0 > 100 µM | SK-MEL-2 > 100 µM | OVCAR-8 > 100 µM | NCI-H226 > 100 µM | HCC 2998 > 100 µM | UACC-62 > 100 µM

COc1cc(C2C(Cl)C(=O)N2NC(=O)c2ccc(N)cc2)cc(Br)c1O (stereo not given)
inactive: M14 15.5 µM | UACC-257 19 µM | Malme-3M 14.5 µM | EKVX 13.2 µM | HT-29 19.8 µM | LOX IMVI 2.75 µM | HL-60 8.75 µM | 786-0 13.3 µM | SK-MEL-2 17 µM | OVCAR-8 28.4 µM | NCI-H226 21.5 µM | HCC 2998 12 µM | CAKI-1 16.8 µM | UACC-62 14 µM

O=C(O)COc1ccc2c3c1C(=O)CCC3CO2 (stereo not given)
inactive: M14 > 100 µM | UACC-257 > 100 µM | Malme-3M > 100 µM | EKVX > 100 µM | HT-29 > 100 µM | LOX IMVI > 100 µM | HL-60 > 100 µM | 786-0 > 100 µM | SK-MEL-2 > 100 µM | OVCAR-8 > 100 µM | HCC 2998 > 100 µM | CAKI-1 > 100 µM | UACC-62 > 100 µM

CC(C)(C)N1CC2(CCCCC2)C1=O
inactive: M14 > 100 µM | UACC-257 > 100 µM | RXF 393 > 100 µM | Malme-3M > 100 µM | EKVX > 100 µM | HT-29 > 100 µM | LOX IMVI > 100 µM | HL-60 > 100 µM | 786-0 > 100 µM | SK-MEL-2 > 100 µM | OVCAR-8 > 100 µM | NCI-H226 > 100 µM | HCC 2998 > 100 µM | CAKI-1 > 100 µM | UACC-62 > 100 µM

CN1CCN2c3ccccc3CC(C#N)(C#N)C2C1 (stereo not given)
inactive: M14 > 100 µM | UACC-257 > 100 µM | RXF 393 > 100 µM | Malme-3M > 100 µM | EKVX > 100 µM | HT-29 > 100 µM | LOX IMVI > 100 µM | HL-60 > 100 µM | 786-0 > 100 µM | SK-MEL-2 > 100 µM | OVCAR-8 > 100 µM | NCI-H226 > 100 µM | HCC 2998 > 100 µM | CAKI-1 > 100 µM | UACC-62 > 100 µM

Cc1cc([N+](=O)[O-])c(C)c2c1[nH]c1ccc(/C(CCC3CCCC3)=N\N)cc12
inactive: M14 17.6 µM | UACC-257 20 µM | Malme-3M 17.5 µM | EKVX 17.4 µM | HT-29 24 µM | LOX IMVI 15.4 µM | HL-60 > 10 µM | 786-0 14.7 µM | SK-MEL-2 16.2 µM | OVCAR-8 23.1 µM | NCI-H226 20.8 µM | HCC 2998 17 µM | CAKI-1 > 10 µM

CC(=O)Nc1ccc(-c2nnc(SCC(=O)Nc3ccccc3Cl)o2)cc1
inactive: M14 > 100 µM | UACC-257 > 100 µM | RXF 393 > 100 µM | Malme-3M > 100 µM | HT-29 80.4 µM | LOX IMVI > 100 µM | HL-60 > 100 µM | 786-0 > 100 µM | SK-MEL-2 > 100 µM | OVCAR-8 > 100 µM | NCI-H226 > 100 µM | HCC 2998 > 100 µM | CAKI-1 > 100 µM

CCOC(=O)C1S/C(=N\c2ccc(OC)c(OC)c2)N=C1C (stereo not given)
inactive: M14 46.7 µM | UACC-257 41.7 µM | RXF 393 29.9 µM | Malme-3M 37.7 µM | EKVX 94.8 µM | HT-29 18.8 µM | LOX IMVI 32.5 µM | HL-60 19.2 µM | 786-0 29.2 µM | SK-MEL-2 29.8 µM | OVCAR-8 36.6 µM | NCI-H226 64.1 µM | HCC 2998 51.9 µM | CAKI-1 39.3 µM | UACC-62 26.3 µM

O=C(O)/C(=C/c1ccccc1[N+](=O)[O-])c1cccs1
inactive: M14 > 100 µM | UACC-257 > 100 µM | EKVX > 100 µM | HT-29 > 100 µM | LOX IMVI > 100 µM | HL-60 > 100 µM | 786-0 > 100 µM | SK-MEL-2 > 100 µM | OVCAR-8 > 100 µM | NCI-H226 > 100 µM | HCC 2998 > 100 µM | CAKI-1 > 100 µM | UACC-62 > 100 µM

CC12CC(Sc3ccccc3N1)c1ccccc1O2 (stereo not given)
inactive: M14 18.3 µM | UACC-257 14.5 µM | RXF 393 15.9 µM | Malme-3M 16.1 µM | EKVX 18.6 µM | HT-29 19.7 µM | LOX IMVI 13.7 µM | HL-60 11 µM | 786-0 17.7 µM | SK-MEL-2 12.8 µM | OVCAR-8 17.9 µM | HCC 2998 17.1 µM | CAKI-1 19.2 µM | UACC-62 17 µM

O=C1/C=C(/c2ccc(O)cc2)[C@@H](OC2OC(CO)C(O)C(O)C2O)Cc2ccc(O)cc2O1.O=C1/C=C(/c2ccc(O)cc2)[C@H](O)Cc2ccc(O[C@@H]3OC(CO)C(O)C(O)C3O)cc2O1 (stereo not given in full)
inactive: M14 > 100 µM | UACC-257 > 100 µM | Malme-3M > 100 µM | EKVX > 100 µM | HT-29 > 100 µM | LOX IMVI > 100 µM | HL-60 4.91 µM | 786-0 > 100 µM | SK-MEL-2 > 100 µM | OVCAR-8 > 100 µM | NCI-H226 > 100 µM | CAKI-1 > 100 µM | UACC-62 > 100 µM

C=C1C(=O)O[C@H](c2ccoc2)C[C@@H]1[C@@]1(C)CCCC2(C)C(=O)OCC21 (stereo not given in full)
inactive: M14 > 100 µM | UACC-257 > 100 µM | RXF 393 > 100 µM | Malme-3M > 100 µM | EKVX > 100 µM | HT-29 > 100 µM | LOX IMVI > 100 µM | 786-0 > 100 µM | SK-MEL-2 > 100 µM | OVCAR-8 > 100 µM | NCI-H226 > 100 µM | HCC 2998 > 100 µM | CAKI-1 > 100 µM | UACC-62 > 100 µM
